This test has as its system Plasmodium falciparum. In words: GSK_TCMDC: Inhibition of Plasmodium falciparum 3D7 in whole erythrocytes, using parasite LDH activity as an index of growth. Format: functional, organism-based. To be noted: Plasmodium falciparum, 3D7.

As for `COc1ccc(NC(=O)/C=C/c2ccc(Oc3ccccc3Cl)c([N+](=O)[O-])c2)cc1OCCN(C(C)C)C(C)C`, the XC50 amounted to 883 nM.

Consider `COc1cccc(-c2ccc(NC(=O)C3CCCN(Cc4cccc(OC)c4O)C3)cc2)c1` (stereo unspecified), for which the XC50 was found to be 847 nM.

`O=C(CCc1cccnc1)Nc1cccc(-c2ccc(-c3nc4cc(C(F)(F)F)ccc4[nH]3)cc2)c1` displayed an XC50 of 867 nM.

`Cc1cccc2nc(-c3cccc(-c4ccc(NC(=O)c5ccoc5)cc4)c3)[nH]c12` showed an XC50 of 703 nM.

Compound `Cc1cc(OCCCNC(=N)c2ccc3ccccc3c2)c(C(C)C)cc1Cl` registered an XC50 of 973 nM.

The compound `CCCCc1ccc2ncc(C(=O)OCC)c(O)c2c1` yielded an XC50 of 632 nM.

For `O=C(/C=C/c1ccc(Cl)c(Cl)c1)N1CCC(CN2C3CCC2CC(c2c[nH]c4ccccc24)C3)CC1` (stereo unspecified), the XC50 was determined as 737 nM.

`O=C(Oc1ccc(C2CNCCc3c2cc(OC(=O)c2ccc(O)cc2)c(OC(=O)c2ccc(O)cc2)c3Cl)cc1)c1ccc(O)cc1` (stereo unspecified) displayed an XC50 of 983 nM.

Regarding `O=C(NC1CCCCC1)N(CCCn1ccnc1)Cc1csc(-c2ccc(CNCc3ccccc3)cc2)n1`, the XC50 worked out at 843 nM.

As to `CCCCNc1nccc2ccc(-c3ccncc3)cc12`, the XC50 is 775 nM.

`CCCCc1cc(N2CCC(NC(C)=O)C2)nc(Nc2ccc(C)cc2)n1` (stereo unspecified) yielded an XC50 of 866 nM.

As for `COc1cc2c(cc1OC)C(C(=O)c1ccccc1)=NCC2`, the XC50 came to 1090 nM.

The compound `CC(C)n1c(CC2CCN(CC3CCN(C(=O)/C=C/c4ccc(Cl)c(Cl)c4)CC3)CC2)nc2ccccc21` gave an XC50 of 612 nM.

Compound `O=C(NCCCCN1CCN(c2cccc3c2CCCC3)CC1)c1ccc(NC(=O)c2ccc(Cl)cc2)cc1` returned an XC50 of 447 nM.

`CCOC(=O)c1ccc(NC(=O)Nc2cccc(-c3ccc(-c4nc5cccc(C)c5[nH]4)s3)c2)cc1`: the XC50 was 144 nM.

The compound `CC1CCN(CCCNc2ccc(C(=O)Nc3ccc(C(F)(F)F)cc3)cc2[N+](=O)[O-])CC1` displayed an XC50 of 340 nM.

For `O=C(Nc1ccc(-c2ccccc2)cc1)Nc1ccc2c(c1)CCNCC2`, the XC50 came out at 348 nM.

Regarding `Clc1cccc(-c2nc(Nc3ccnc(-c4ccc(CN5CCOCC5)cc4)c3)c3ccccc3n2)c1`, the XC50 was determined as 710 nM.

`COc1ccc(CNCc2cccc(-c3ccc(-c4nc5cc(C(F)(F)F)ccc5[nH]4)cc3)c2)cc1` registered an XC50 of 126 nM.

As to `Fc1cccc(COc2ccc(Nc3ncnc4sc(C#C[C@H]5CC[C@H](CN6CCOCC6)N5)cc34)cc2Cl)c1`, the XC50 was found to be 920 nM.

In turn, `CC(C)(C)C1CC(=O)CC2C(=O)N(C3CCCCC3)C(=O)C21` (stereo unspecified) came in with an XC50 of 421 nM.

Compound `Cc1cc(=NN=Cc2cccc(Cl)c2)c2ccc(F)cc2[nH]1` yielded an XC50 of 240 nM.

`Nc1nc(N)c2cc(CNc3ccc(Cl)c(Cl)c3)ccc2n1` came in with an XC50 of 1020 nM.

For `COc1ccccc1C1CCN(C2CCC(NC(=O)/C=C/c3cccc(Cl)c3)CC2)CC1` (stereo unspecified), the XC50 amounted to 1030 nM.

`COc1ccc(-c2ccc(NC(=O)c3ccc(C#N)cc3)cc2)cc1CN1CCC(O)CC1` showed an XC50 of 581 nM.

`CCCN(CCC)CCOc1ccc(C(O)(C#CC(O)(c2ccc(OCCN(CCC)CCC)cc2)c2cccc(Cl)c2)c2cccc(Cl)c2)cc1` (stereo unspecified): the XC50 worked out at 790 nM.

`O=C(Nc1ccc2c(c1)CCC2)N[C@H]1CCN(CCCCCNC(=O)C2CC2c2ccc(Cl)c(Cl)c2)C1` (stereo partly specified) came in with an XC50 of 1080 nM.

The compound `CO/C(=C\C=C\c1cc2cc(Cl)c(Cl)cc2[nH]1)C(=O)NC1CCN(CCCc2ccccc2)CC1` displayed an XC50 of 767 nM.

Turning to `O=C(NC1CCN(CCN2CCc3ccccc3CC2)CC1)c1ccc(-c2ccc(C(F)(F)F)cc2)cc1`, the XC50 amounted to 935 nM.

The compound `CCN(CCCN1CCCCC1)c1nccc(Nc2ccc(Cl)cc2)n1` displayed an XC50 of 1190 nM.

For `Nc1cc(-c2ccc3ccccc3c2)nc2ccccc12`, the XC50 amounted to 699 nM.

As to `CC(C)c1ccc(NC(=O)NC2CCN(CCCCCNC(=O)/C=C/c3ccc(Cl)c(Cl)c3)CC2)cc1`, the XC50 is 674 nM.

`O=C(CSc1nc(-c2ccccc2Cl)ns1)Nc1cccc(Cl)c1` gave an XC50 of 787 nM.

In the case of `O=C(Nc1ccccc1F)N(CCCn1ccnc1)Cc1csc(-c2ccc(CNCc3ccccc3)cc2)n1`, the XC50 stood at 841 nM.

As for `CS(=O)(=O)c1ccc(CCNCc2ccc(-c3cccc(-c4nc5ccccc5[nH]4)c3)cc2)cc1`, the XC50 came out at 194 nM.

On to `CCCCCCN1CCCN(Cc2ccc(C(=O)Nc3cccc(CC)c3)cc2)CC1`, for which the XC50 was 670 nM.

The compound `Cc1[nH]c(C)c(-c2ccc(CCc3cccc(C(F)(F)F)c3)nc2)c(=O)c1Cl` yielded an XC50 of 101 nM.

In the case of `O=c1cc(NCCCNCc2scc(I)c2I)[nH]c2ccccc12`, the XC50 was 586 nM.

Turning to `CCNC(=O)N1CCc2ccc(Oc3nc(NCc4ccccc4OC)ncc3C)cc2CC1`, the XC50 came out at 1070 nM.

With `COc1ccc2nc(-c3ccc(C(=O)NCCCN4CCN(c5cc(Cl)ccc5OC)CC4)cc3)[nH]c2c1`, the XC50 turned out to be 772 nM.

With `O=C(Nc1cccc(-c2nn3ccccc3c2-c2ccnc(Nc3ccc(C(=O)N4CCOCC4)cc3)n2)c1)c1c(F)cccc1F`, the XC50 turned out to be 383 nM.

As for `O=S(=O)(c1c(Cl)cc(Cl)cc1Cl)N1CCCCC(c2ccc(F)c(F)c2)=N1`, the XC50 turned out to be 594 nM.

Regarding `CC(C)(C)c1ccc(CN2CCC(CNC(=O)c3cc(-c4ccccc4Cl)cs3)C2)cc1` (stereo unspecified), the XC50 was 856 nM.

Regarding `CCOc1cc(C(=O)NC2CC(C)(C)NC(C)(C)C2)ccc1-c1cc2cc(Cl)c(Cl)cc2[nH]1`, the XC50 was 770 nM.

Turning to `O=C(NC1CCN(Cc2ccsc2)CC1)c1ccc(-c2cccc(C(F)(F)F)c2)s1`, the XC50 was 1440 nM.

`NC1=NC(c2ccccc2)(c2ccccc2)C(=O)N1CCCCc1ccccc1` came in with an XC50 of 760 nM.

Regarding `O=C(NCCCN1CCC(N2CCCCC2)CC1)c1ccc(N2CCOc3ccccc32)s1`, the XC50 was 732 nM.

With `N=C(N)Nc1ccc(C(=O)O)c(O)c1`, the XC50 was 1030 nM.

`COc1ccc2nccc([C@@H](O)CN3CCC(NCCOc4ccc(F)cc4[N+](=O)[O-])CC3)c2c1` had an XC50 of 116 nM.

`Oc1ccc(Cl)cc1CN1CCC(CCOC(c2ccccc2)c2ccc(Cl)cc2)CC1` (stereo unspecified) gave an XC50 of 390 nM.

As to `Nc1nccc2ccc(-c3cccc(OCc4ccccc4)c3)cc12`, the XC50 worked out at 289 nM.

`Cc1nc(-c2ccc(-c3ccc(C(=O)Nc4ccc(Cl)c(N5CCN(C)CC5)c4)cc3)c(C)c2)no1` registered an XC50 of 743 nM.

In turn, `Cc1ccccc1C1CCN(c2ncc(C(=O)NC3CC3)cc2Cl)CC1` came in with an XC50 of 697 nM.

Take `CC(C)=CC1C(C(=O)n2c(=N)[nH]c3ccccc32)C1(C)C` (stereo unspecified): the XC50 was 193 nM.

In turn, `CCOC(=O)[C@H](Cc1cccc2ccccc12)NC(=O)[C@H](CCC(=O)OC(C)(C)C)NC(=O)c1ccc(N(C)Cc2cnc3nc(N)nc(N)c3n2)cc1` returned an XC50 of 663 nM.

In the case of `CC(=O)Nc1ccc(CN2CCN(C(c3ccc(F)cc3)c3ccc(F)cc3)CC2)cc1`, the XC50 stood at 831 nM.

On to `COc1cc(-c2cc(-c3ccc(OCCN(C)C)cc3)[nH]c2-c2ccncc2)ccc1Cl`, for which the XC50 amounted to 711 nM.

The compound `COc1ccc(-c2ccc(NC(=O)c3cccc(C#N)c3)cc2)cc1CN1CCCC(C(N)=O)C1` (stereo unspecified) showed an XC50 of 863 nM.

Consider `CCOC(=O)c1ccc(COc2ccc(C)nc2)cc1`, for which the XC50 stood at 542 nM.

Turning to `Cc1ccc(NC(=S)N2CCCN(CCCCCNC(=O)/C=C/c3ccc(Cl)c(Cl)c3)CC2)cc1Cl`, the XC50 was 916 nM.

In turn, `Cc1cccc2nc(-c3cccc(-c4cccc(C(=O)NCCc5cn(C)cn5)c4)c3)[nH]c12` showed an XC50 of 588 nM.

Consider `Nc1cccc(CNCc2ccc(-c3ccc(-c4nc5cc(C(F)(F)F)ccc5[nH]4)s3)cc2)c1`, for which the XC50 was determined as 438 nM.

In turn, `S=C(NCCc1ccccc1)Nc1ccc2ncsc2c1` showed an XC50 of 1400 nM.

For `CCCC(C)NC(=O)/C=C/c1ccccc1-c1cccc(OC)c1` (stereo unspecified), the XC50 was 1250 nM.

Compound `NC(=O)COc1cccc2c1CCN(CCN1CCC(NC(=O)c3ccc(-c4ccc(Cl)cc4)cc3)CC1)C2` registered an XC50 of 841 nM.

As to `CCCNCc1ccc(-c2ccc(CN(CCOC)C(=O)c3nn(-c4ccccc4)nc3C)cc2)nc1`, the XC50 was 725 nM.

On to `O=C(NC1CCCCC1)N(Cc1cccc(-c2ccc(CNCCc3ccccc3)cc2)c1)C1CCN(Cc2ccccc2)CC1`, for which the XC50 came out at 650 nM.

For `O=C(NCCN1CCC(c2ncc(-c3ccccc3)o2)CC1)c1ccc(NC(=O)c2ccc(Cl)cc2)cc1`, the XC50 was found to be 244 nM.

In turn, `O=C(CN1CCC(NCc2cnc(-c3ccc(Cl)cc3)[nH]2)CC1)N1CCc2ccccc21` had an XC50 of 650 nM.

Compound `CCCCCCNc1c2ccccc2nc2ccccc12` registered an XC50 of 949 nM.

`O=C(/C=C/c1ccc(Cl)c(Cl)c1)NCCCCCN1CCC(C(=O)Nc2cccc(Cl)c2)CC1` showed an XC50 of 681 nM.

In turn, `Cc1cc(NCCCN2CCCC2=O)n2c(nc3ccccc32)c1C#N` had an XC50 of 858 nM.

`O=C1COC2(CN1CC1CCN(Cc3ccc(O)c(Cl)c3)C1)c1ccccc1-c1ccccc12` (stereo unspecified) yielded an XC50 of 1060 nM.

On to `O=S(=O)(Nc1cccc(CCN2CCC(N3CCCCC3)CC2)c1)c1ccc(Cl)cc1`, for which the XC50 amounted to 916 nM.

The compound `Cc1cnc(C(=O)Nc2cccc(-c3cccc(-c4nc5cccc(C)c5[nH]4)c3)c2)cn1` yielded an XC50 of 579 nM.

Compound `COc1ccc(O)c(Cc2cnc3nc(N)[nH]c(=O)c3c2C)c1` displayed an XC50 of 234 nM.

Regarding `Cc1cc(C2CCN(CCCCNC(=O)c3ccc(-c4ccc(C#N)cc4)cc3)CC2)c(C)cc1OCCO`, the XC50 amounted to 808 nM.

Consider `CN(C)CCOc1cccc(NC(=O)Nc2ccc(-c3ccccc3)cc2)c1`, for which the XC50 was found to be 878 nM.

For `O=C(Nc1cccc(-c2ccc(-c3nc4cc(C(F)(F)F)ccc4[nH]3)cc2)c1)c1cccnc1`, the XC50 stood at 572 nM.

With `COc1ccc(S(=O)(=O)NC2CCN(c3cc(C)nc(Nc4cccc(C#N)c4)n3)CC2)cc1`, the XC50 came out at 946 nM.

Compound `O=C(Nc1ccc(Cl)cc1)Nc1ccc(-c2csc(-c3nc4ccccc4[nH]3)c2)cc1` displayed an XC50 of 799 nM.

For `CCN1CCN(c2cc(C)c3cc(NC(=O)c4cc(OC)cc(OC)c4)ccc3n2)CC1`, the XC50 worked out at 156 nM.

`COc1ccc(CNc2nccc3ccc(-c4ccc5nccn5c4)cc23)cc1` yielded an XC50 of 882 nM.

As to `Cc1ccc2[nH]c(/C=C/c3cccc4cc[nH]c34)nc2c1`, the XC50 came out at 1180 nM.

Take `Cc1noc(=O)c2ccc(NC(=O)C(O)(CSc3ccccc3)CC(C)C)cc12` (stereo unspecified): the XC50 is 722 nM.

In the case of `CC(C)(C)c1cc(C(=O)N2CCN(c3cnccn3)CC2)n(Cc2ccccc2)n1`, the XC50 came to 1140 nM.

These data come from ChEMBL document CHEMBL1157539, “Thousands of chemical starting points for antimalarial lead identification” (Nature, 2010).
